This note sets out measurements from US20190175528A1, “INHIBITION OF BIOFILM ORGANISMS” (NovaBiotics Limited, priority 2009, published 2019).

One data set relates to Staphylococcus spp (4). The data set is described as follows: microbe, parasite or virus in culture. It is filed as cell-based. The conditions noted are these: agent alone; range over strains. The method, then: (§1) The bacterial inoculum was established by the dilution method from actively-growing cultures in Mueller-Hinton broth, standardized with 0.5 McFarland turbidity standard as described in the CLSI method M26-A.
(§2) To determine the prevention of biofilm formation, both the bacterial inoculum and the antimicrobial agents were added simultaneously to the plates. The plates were incubated at 37° C. for 24 h and the optical density was read at 625 nm on a microtitre plate reader (BioTek Powerwave XS, Winooski, USA). The MIC was obtained as the lowest concentration of antimicrobial showing total inhibition of bacterial growth.
(§3) The FIC corresponds to an interaction coefficient indicating whether the combination of antimicrobial agents is synergistic, additive, antagonist or neutral. The FIC is determined by comparing the activity of an agent in combination (MIC of agent A+agent B) with the activity of the agent alone (MIC of agent A or agent B) as follow (Singh et al., 2000):
(§4) FIC=MICA[combination]/MICA[alone]+MICB[combination]/MICB[alone]
(§5) Additive combinations of two antimicrobial agents are indicated by a FIC index of 1, whereas a FIC index <1 indicates synergistic combinations. Neutral combinations would give a FIC between 1 and 4, a FIC index higher than 4 indicates antagonist effects between the two antimicrobial agents.
(§6) Summary of the activity of the tested antimicrobial agents against the Gram-negative P. aeruginosa strains and the Gram-positive Staphylococcus spp. The number into brackets indicates the maximum number of strains tested. MIC: minimum inhibition concentration; MBEC: minimum biofilm eradication concentration; FIC: fractional inhibitory concentration.

Data set [1] relates to P. aeruginosa ATCC BAA-47 (PAO1) biofilm cells. The data set is described as follows: MBEC against 24 h-old biofilm. It is filed as cell-based, Pseudomonas aeruginosa. Conditions: agent alone; FIG. 7. Here is the method: (§7) The FIC was also calculated to assess the interaction of two antimicrobial agents in combination against bacterial biofilms. The same formulae applied, using MBEC instead of MIC.
(§8) A total volume of 100 μl bacterial inoculum in Mueller-Hinton was added to each well of 96-well plates (challenge plates) and the plates were incubated at 37° C. for 24 h on a gyrorotary shaking platform (Grant-bio PS-3D, Shepreth, England) at 24 rpm to allow for biofilm formation.
(§9) The challenge plates were then rinsed once with sterile PBS (lx) and two-fold serial dilutions of antimicrobial agents in Mueller-Hinton were added to the challenge plates. The challenge plates were incubated at 37° C. for 24 h on a gyrorotary shaking platform (Grant-bio PS-3D, Shepreth, England) at 24 rpm.
(§10) The supernatants from each of the challenge plates were transferred into fresh plates and the optical density was measured at 625 nm on a microtitre plate reader (BioTek Powerwave XS, Winooski, USA). The MBEC was obtained by the lowest concentration of antimicrobial showing no bacterial growth.
(§11) The assessment of the activity of NP108 and cysteamine against bacterial biofilms was carried out with 24 h-old biofilms and the activity of both compounds in combination was also determined. The activity of the antimicrobial agents against bacterial biofilms was determined by their activity against the biofilm cells and against the persister cells.

The subject of data set [2] is P. aeruginosa ATCC BAA-47 (PAO1) persister cells. The data set is described as follows: Relative viability of persister cells (SYTO9/PI live/dead fluorescence, microscopy). It is filed as cell-based, Pseudomonas aeruginosa. Conditions: agent alone; FIG. 6, FIG. 8. The method, then:
(§12) Following transfer of the supernatant from the challenge plates, the biofilms were rinsed once with sterile PBS (lx) and 100 μl of BacLight live/dead fluorescent staining solution (Invitrogen, Paisley, UK) containing 4 μM SYTO9 and 20 μM propidium iodide (PI) in sterile PBS (lx) were added to the wells of the challenge plates. The plates were incubated at room temperature in the dark for 15 min and the fluorescence was read at 485(ex)/528(em) and 485(ex)/645(em) for SYTO9 and PI fluorescence, respectively on a fluorescence microtitre plate reader (BioTek Synergy HT, Winooski, USA) with the sensitivity set at 50 and bottom optics position was selected. Direct observation of the biofilms with an Axiovert 40 fluorescence microscope (Zeiss, Gottingen, Germany) allowed identifying the presence of live and dead bacteria and pictures of the biofilms were taken at 100 to 400-fold magnification.
(§13) The relative viability of persister cells was determined by the live/dead fluorescence measurements ratio and microscopic observations were used to confirm the presence or absence of live cells.
The activity of NP108 and cysteamine against the persister cells was assessed using a fluorescence staining method to determine the relative viability of the cells. The nucleic acid-binding fluorescent molecules used were SYTO9 and PI, which penetrate all bacterial cells (green fluorescence) and membrane-disrupted cells (red fluorescence), respectively.

In data set [3] the test system is S. aureus DSM 11729 biofilm cells. It is filed as cell-based, Staphylococcus aureus. The conditions noted are these: agent alone. The method, then:
as §7, §8, §9, §10, §11

Data set [4] relates to methicillin-resistant S. aureus (MRSA) DSM 11729 planktonic cells. The data set is described as follows: Time course activity over a 48-h period against planktonic cells. It is filed as cell-based, Staphylococcus aureus. The conditions noted are these: 0.25 mg/ml. An excerpt:
The range of concentrations tested as shown in the legends is in mg/ml.

Data set [5] concerns P. aeruginosa ATCC27853 biofilm cells. It is filed as cell-based, Pseudomonas aeruginosa. Here is the method: as §8, §9, §10
For data set [6], the system named is P. aeruginosa ATCC27853 persister cells. As to the kind of experiment: Relative viability of persister cells (SYTO9/PI live/dead fluorescence). It is filed as cell-based, Pseudomonas aeruginosa. The conditions noted are these: 1024 μg/ml NP341+3128 μg/ml N-acetylcysteine; FIG. 20b. The method, then: as §12, §13
Data set [7] relates to S. epidermidis 12228 biofilm cells. The data set is described as follows: MBEC against 24 h-old biofilm. It is filed as cell-based, Staphylococcus epidermidis. Conditions: agent alone. Here is the method: as §8, §9, §10, §11
Data set [8] relates to P. aeruginosa strains (7) biofilm cells. It is filed as cell-based, Pseudomonas aeruginosa. Conditions: agent alone. Here is the method: as §7, §8, §9, §10, §6
Data set [9] relates to P. aeruginosa strains (7). As to the kind of experiment: microbe, parasite or virus in culture. The format is cell-based, Pseudomonas aeruginosa. Conditions: agent alone; range over strains. The method, then: as §1, §2, §3, §4, §5, §6
Data set [10] has as its system P. aeruginosa strains (7) persister cells. As to the kind of experiment: Persister cells in biofilms (live/dead staining), summary over strains. The format is cell-based, Pseudomonas aeruginosa. The conditions noted are these: agent alone. Here is the method: as §12, §13, §6
Data set [11] relates to Staphylococcus spp (4) persister cells. The description is as above. The format is cell-based. Conditions: agent alone; FIG. 8. Here is the method:
as §12, §13, §6

Consider `N=C(N)NCCC[C@@H](N)C(=O)N[C@H](CCCNC(=N)N)C(=O)N[C@H](CCCNC(=N)N)C(=O)N[C@H](CCCNC(=N)N)C(=O)N[C@H](CCCNC(=N)N)C(=O)N[C@H](CCCNC(=N)N)C(=O)N[C@H](CCCNC(=N)N)C(=O)N[C@H](CCCNC(=N)N)C(=O)N[C@H](CCCNC(=N)N)C(=O)N[C@H](CCCNC(=N)N)C(=O)N[C@H](CCCNC(=N)N)C(=O)N[C@H](CCCNC(=N)N)C(=O)N[C@H](CCCNC(=N)N)C(N)=O` [NP341, dRdRdRdRdRdRdRdRdRdRdRdRdR-CONH], for which, in the data set with Staphylococcus spp (4), the “MIC, Staphylococcus spp (4)” value was found to be 250 µg/mL. Further, the “reduction of viability of biofilm cells, P. aeruginosa BAA-47 (PAO1)” value in data set [1] is on record as 2 to 3 fold. Moreover, the “concentration that inhibits the viability of P. aeruginosa BAA-47 (PAO1) persister cells” value in [2] is 625 µg/mL. In data set [3], the “MBEC, S. aureus (MRSA) DSM 11729 biofilm cells” value was 625 µg/mL. Further, the “reduction of viability of biofilm cells, MRSA 11729” value in [3] (FIG. 7) is listed as 2 to 3 fold. The “duration of complete inhibition” value in [4] is recorded as 48 h. Besides, in [5] (agent alone, FIG. 21a), the “MBEC alone, P. aeruginosa ATCC27853” value is recorded as “more than 2 mg/ml”. In addition, the “NP341 needed to reach the MBEC in combination, P. aeruginosa ATCC27853” value in [5] (in combination with 3-6 mg/ml of N-acetylcysteine, FIG. 20a) was determined as 205 µg/mL. Besides, the “inhibition of persister cells, P. aeruginosa ATCC27853” value in data set [6] is on record as “approximately 75%”. Further, in data set [7], the “MBEC, S. epidermidis 12228 biofilm cells” value was 625 µg/mL. The “MBEC, P. aeruginosa strains (7)” value in [8] is given as >5,000 μg/ml. The “MIC, P. aeruginosa strains (7)” value in data set [9] is 31.25 µg/mL. Further, the “Persisters, active concentration, P. aeruginosa strains (7)” value in data set [10] is 625 µg/mL. Also, the “decrease of viability of persister cells of the 3 Staphylococcus species” value in data set [11] was 25 to 50%.
